Data published in patent publication US12390457B2, “Stable solutions of immunomodulatory imide compounds for parenteral use” (Starton Therapeutics, Inc., priority 2021, dated 2025).
Converted amounts (≈) assume the structure as drawn. Read-outs that look alike come from different tables or passages of the source.

What was measured:
[1] = Forced degradation of LLD solutions (acidic, basic, oxidative; 40° C.) by HPLC; format: physicochemical
Experimental: The primary analytical method for analysis of drug substance in solution is a stability-indicating method, which identifies and quantitates various primary and degradative peaks of the API by HPLC.
In the process of the analytical evaluation, forced degradation of the API in solution is performed to assess how identified chromatography peaks, primary and degradation/impurity are formed.

[2] = Compatibility of lenalidomide with sodium metabisulfite antioxidant; format: physicochemical
[3] = cited from earlier work
[4] = LLD solubility in NMP and in aqueous povidone; format: physicochemical
Experimental: These materials conform to a like-dissolves-like solubility. Acetonitrile was also evaluated as a polar aprotic solvent to assess solubility. Organic volatile solvents were assessed, not to include them into formulation approach for parenteral use, but to ascertain the potential solubility parameter requirements to solubilize the API.
Further, the polymer chain of povidone has specific hydrogen bonding affinity which provides enhanced solubility and protection of the primary amine of lenalidomide, which is most susceptible to oxidation.
Dissolution is usually complete within approximately 15 minutes for volumes of approximately 20 mL. It should be appreciated, however, that larger scale production may require longer dissolution times.

[5] = cited from earlier work; remark: listed apart in the source
[6] = polar aprotic solvent in combination with PVP, in presence of water

Nc1cccc2c1CN(C1CCC(=O)NC1=O)C2=O (stereo not drawn) [LLD, 3-(4-amino-1-3-dihydro-1-oxo-2H-isoindol-2yl)-2,6-piperidinedione]
LLD degraded ([1]; 1% PEG400, basic hydrolysis, FIG. 13): 100%
LLD degraded ([1]; 1% PG, basic hydrolysis, FIG. 14): 100%
Degradation of LLD ([1]; 1% PVP K-12, basic hydrolysis, FIG. 15): 100%
Total related impurities ([1]; below pH 4.5): negligible total related impurities
Hydrolytic degradation mitigated [1, 6]: > 90%
Oxidation mitigated [1, 6]: ~100%
Loss of LLD ([1]; presence of ACN, basic hydrolysis, FIG. 8): 100%
Loss of LLD ([1]; presence of IPA, basic hydrolysis, FIG. 7): 100%
Interaction with sodium metabisulfite as an antioxidant [2]: direct interaction with lenalidomide
Solubility of the LLD in solution [3]: < 400 µg/mL
solubility ([3]; pH about 6.0 to about 7.0, dependent on storage conditions): about 0.2 mg/mL
solubility ([3]; physiologically acceptable pH about 3 to about 8): no more than 0.4 mg/mL
Saturation point of LLD in NMP ([4]; NMP): approximately 30%
Solubility in NMP ([4]; NMP): approximately 30 % by weight
solubility ([4]; NMP (n-methyl-2-pyrrolidone), organic solvent or mixture, read-out: Solubility in NMP): ~300000 µg/mL (≈ 1160 mM)
Improvement of aqueous solubility by aqueous povidone solvent ([4]; aqueous povidone): 2-3 fold
solubility ([4]; aqueous povidone, aqueous with cosolvent or surfactant or cyclodextrin, with povidone, read-out: Aqueous solubility): ≤ 800 µg/mL
solubility ([4]; aqueous, without povidone, read-out: Aqueous solubility): ~200 µg/mL (≈ 0.771 mM)
Total Related Substances by peak area ([5]; T0 upon preparation in standard solutions or formulations): > 1.5%
Total Related Substances ([5]; after 48 hours at ICH storage conditions): > 2.5%
Total Related Substances ([5]; after 48 hours, higher pH ranges such as pH 7.0 PBS): > 10%
